The source of these data is patent US4476299A, “Cyclic polyamino containing compounds having therapeutic effect and the preparation thereof” (priority 1981, dated 1984).

One data set concerns P-388 cells. Put plainly: Antineoplastic action against implanted P-388 tumor, CDF1 mice, i.p.-i.p. (T/C %). The format is in vivo. Conditions: for T/C (%): Table 7, P388 (i.p.-i.p.). As to the method: (§1) In this animal test, the antineoplastic action against the implanted tumor was examined, in lower animals in vivo, in repsect to the compounds according to the present invention, by using CDF1 mice.
(§2) To the peritoneal cavity of each group of mice consisting of six CDF1 mice per group, 10^6 /0.1 ml of P-388 cells or 10^5 /0.1 ml of L-1210 cells were implanted. […] While to the control groups of CDF1 mice, P-388 and L-1210 cells were implanted in the same manner and they were bred without administration of the compounds. […]

The next data set deals with L-1210 cells. In words: Antineoplastic action against implanted L-1210 tumor, CDF1 mice, i.p.-i.p. (T/C %). In kind it is in vivo. Conditions: Table 7, L1210 (i.p.-i.p.). Here is the method:
as §1, §2

The test system of another data set is B-16 melanoma. Put plainly: Antineoplastic action against B-16 melanoma, i.p.-i.p. (T/C %). The format is in vivo, mice. The following applies: for T/C (%): Table 7, B16 (i.p.-i.p.); for effective against B-16 melanoma: in words.
Text: as §1
(§3) As the screening test for confirming antineoplasticity of certain compound, it is known in the art that there are two kinds of tests, one being "in vitro" test wherein carcinoma cells in propagation in a test tube are used, the other being "in vivo" test wherein lower animals implanted with carcinoma cells are used. In Japan. the "in vivo" test is usually carried out by using Ehrlich tumor, L-1210 cells, sarcoma 180 cells, Yoshida sarcoma or ascites-liver tumor as ascitic tumor and immobilized carcinoma mentioned above as fixed carcinoma. Recently, a new method for confirming the antineoplasticity has been developed, in which lymphocytic leukemia cells P-388 are used. It is known that P-388 has more strong sensitivity than L-1210. As fixed carcinoma, there may be mentioned, for example Lewis lung cancer B-16 melanoma, MM2, MOPC 104E, Colon 26, MH 134, C-1498 and the like.
(§4) The new compounds of the present invention were confirmed to be effective to the P-388 cells in the light of the screening test's results hereinbefore described.

A further data set concerns MM2. In words: Antineoplastic action against MM2 tumor, i.p.-i.p. (T/C %). The format is in vivo, mice. The following applies: for T/C (%) / 60< (mice, fraction of group): Table 7, MM2 (i.p.-i.p.); for effective against MM2: in words.
Text: as §1, §3, §4

Data set [1] is described as follows: Toxicity test: lethal dose in mice (Litchfield-Wilcoxon). More on the design: species or system male 4-weeks CD-1 (ICR) mice. Conditions: mouse, in vivo, 7 days, read-out: LD50 and 95% Confidence Limit. As to the method: With respect to the compounds of this invention, the lethal dose was determined as follows.
By using male 4-weeks CD-1 (ICR) mice consisting of 5 to 10 mice per group, the desired amount of each compound of this invention was suspended in 0.5% CMC solution and the resultant suspension was administered to each mouse intraperitoneally or intravenously. Observing the life or death as well as the general symptome during 7 days after the administration of the compounds, the value of LD50 for each compounds was estimated from the lethal population observed on the basis of the Litchfield-Wilcoxon method.

The subject of a further data set is CD-1 (IRC) mice. Put plainly: Neuropharmacological multidimensional observation (modified Arwin method and Smith method) in mice. The format is in vivo, 4-weeks CD-1 (IRC) mice. The following applies: i.p., 1 to 20 mg/kg, observed every 30 minutes for 180 minutes. Here is the method:
In this test, other pharmacological effects which may be obtained by these compounds were investigated.
Each compound of the invention was intraperitoneally administered to 4-weeks CD-1 (IRC) mice (Nippon Charles Liver K.K.) in the dose of 1 to 20 mg/kg with using mice groups consisting of three mice per group. […] The observation was carried out according to the modified Arwin method and Smith method, i.e., neuropharmacological multidimentional observation method.
Making a comparison between the symptom observed and the pattern of the pharmacological action due to the known medicines, it has been discovered that each compound of the invention has the following pharmacological effect.

Where [2] appears, read: Mus musculus, P388, ip, read-out: T/C %, (Treatment/Control %).
[3] abbreviates: Mus musculus, ip, Table 6, P388, dose 10 mg/kg, i.p., read-out: T/C %, (Treatment/Control %).

Structures are written as SMILES. “Also recorded” adds a separate entry of the source. Read-outs that look alike come from different tables or passages of the source.

As for `CCCCCCOc1ccc2cc1Oc1ccc(cc1)CC1C(=O)N(C)C(C2)C(=O)NC(C)C(=O)NC(C)C(=O)N(C)C(Cc2ccc(OC)cc2)C(=O)NC(C)C(=O)N1C` (stereo not shown) [Ex. 2, n-hexylether of the compound TPC-A], in the data set on P-388 cells (setting [2]), the response vs control in vivo at 0.05 mg/kg amounted to 110%. For the same compound, in the data set on P-388 cells (setting [2]), the response vs control in vivo at 0.5 mg/kg turned out to be 137%. Moreover, in the data set with P-388 cells (setting [2]), the response vs control in vivo at 2 mg/kg turned out to be 154%. Besides, the response vs control in vivo at 4 mg/kg in the data set with P-388 cells (setting [2]) worked out at 173%. For the same compound, the “T/C (%)” value with P-388 cells (0.05 mg/kg) was found to be 130.4%; in the data set with P-388 cells (0.5 mg/kg), 143.5%; in the data set on P-388 cells (2 mg/kg), 150.0%; in the data set on P-388 cells (5 mg/kg), 176.1%; with L-1210 cells (0.5 mg/kg), 115.6%; in the data set on L-1210 cells (2 mg/kg) it was 126.6%. Moreover, the “T/C (%)” value amounted to 130.9% in the data set on L-1210 cells (4 mg/kg); 130.5% with B-16 melanoma (0.5 mg/kg); 158.2% in the data set with B-16 melanoma (2 mg/kg); 136.2% with B-16 melanoma (4 mg/kg); 110.3% in the data set with MM2 (0.5 mg/kg); 129.3% in the data set on MM2 (2 mg/kg). In the data set with MM2 (4 mg/kg), the “T/C (%)” value is reported as 161.8%. Moreover, the “effective against B-16 melanoma” value with B-16 melanoma is on record as “effective against B-16 melanoma”. Also, the “60< (mice, fraction of group)” value with MM2 (2 mg/kg) is recorded as 3/6; in the data set with MM2 (4 mg/kg), 1/7. In the data set with MM2, the “effective against MM2” value is “effective”.
For `CCCCCC(=O)Oc1ccc2cc1Oc1ccc(cc1)CC1C(=O)N(C)C(C2)C(=O)NC(C)C(=O)NC(C)C(=O)N(C)C(Cc2ccc(OC)cc2)C(=O)NC(C)C(=O)N1C` (stereo not shown) [Ex. 21, caproate of TPC-A], in the data set with P-388 cells (setting [2]), the response vs control in vivo at 0.05 mg/kg came out at 134%. In addition, in the data set with P-388 cells (setting [2]), the response vs control in vivo at 0.5 mg/kg worked out at 143%. For the same compound, the response vs control in vivo at 2 mg/kg in the data set on P-388 cells (setting [2]) was determined as 152%. Besides, the response vs control in vivo at 10 mg/kg in the data set with P-388 cells (setting [2]) came to 197%. The “T/C (%)” value with P-388 cells (0.01 mg/kg) worked out at 133.7%; in the data set on P-388 cells (0.1 mg/kg), 135.9%; in the data set with P-388 cells (2 mg/kg), 152.2%; with L-1210 cells (0.5 mg/kg), 115.6%; in the data set with L-1210 cells (2 mg/kg), 126.6%; in the data set with L-1210 cells (10 mg/kg), 67.3%. In addition, the “T/C (%)” value with B-16 melanoma (0.5 mg/kg) is given as 143.5%; in the data set on B-16 melanoma (2 mg/kg), 152.0%; in the data set on B-16 melanoma (5 mg/kg), 165.5%; in the data set with MM2 (0.5 mg/kg), 112.1%; in the data set with MM2 (2 mg/kg), 127.3%; in the data set with MM2 (10 mg/kg), 93.9%. Besides, the “60< (mice, fraction of group)” value in the data set on MM2 (2 mg/kg) is on record as 2/6.
Usually LD50 stands for the dose at which mortality reaches 50%. With `COc1ccc(CC2C(=O)NC(C)C(=O)N(C)C3Cc4ccc(cc4)Oc4cc(ccc4OC(C)=O)CC(C(=O)NC(C)C(=O)NC(C)C(=O)N2C)N(C)C3=O)cc1` (stereo not shown) [Ex. 22, Acetic acid ester of TPC-A], in the data set on P-388 cells (Mus musculus, ip, Table 6, P388, dose 0.05 mg/kg, i.p., read-out: T/C %, (Treatment/Control %)), the response vs control in vivo at 0.05 mg/kg stood at 133%. Moreover, the response vs control in vivo at 0.5 mg/kg in the data set on P-388 cells (Mus musculus, ip, Table 6, P388, dose 0.5 mg/kg, i.p., read-out: T/C %, (Treatment/Control %)) worked out at 156%. Further, the response vs control in vivo at 2 mg/kg in the data set on P-388 cells (Mus musculus, ip, Table 6, P388, dose 2 mg/kg, i.p., read-out: T/C %, (Treatment/Control %)) was found to be 169%. Also, the response vs control in vivo at 10 mg/kg with P-388 cells (setting [3]) was 195%. Besides, the “T/C (%)” value in the data set on P-388 cells (0.05 mg/kg) turned out to be 133.3%; in the data set with P-388 cells (0.5 mg/kg), 155.6%; with P-388 cells (2 mg/kg), 168.9%; in the data set on P-388 cells (5 mg/kg) it was 175.8%; with P-388 cells (10 mg/kg), 194.7%; in the data set on L-1210 cells (0.05 mg/kg), 100.9%. Further, the “T/C (%)” value in the data set with L-1210 cells (0.5 mg/kg) amounted to 110.0%; in the data set on L-1210 cells (2 mg/kg), 114.4%; with L-1210 cells (5 mg/kg), 120.0%; in the data set on L-1210 cells (10 mg/kg) it was 128.9%; in the data set with B-16 melanoma (0.5 mg/kg), 116.9%; in the data set on B-16 melanoma (2 mg/kg), 128.5%. For the same compound, the “T/C (%)” value was determined as 147.8% in the data set with B-16 melanoma (4 mg/kg); 141.1% in the data set on B-16 melanoma (8 mg/kg); 102.5% in the data set with MM2 (0.5 mg/kg); 109.2% in the data set with MM2 (2 mg/kg); 117.8% in the data set with MM2 (5 mg/kg); 120.9% in the data set with MM2 (10 mg/kg). Also, in the data set on B-16 melanoma, the “effective against B-16 melanoma” value is reported as “effective against B-16 melanoma”. The “effective against MM2” value in the data set on MM2 is “effective”. In addition, the LD50 at 168 h was found to be 20 mg/kg in data set [1] (intravenous) and 18.4 mg/kg in data set [1] (ip, intraperitoneal). For the same compound, the Pharmacological effect estimated entry in the data set with CD-1 (IRC) mice is given as “emetic action; also recorded: psychotropic action; also recorded: antidiuretic action”.
As for `CCCCCCCCCC(=O)Oc1ccc2cc1Oc1ccc(cc1)CC1C(=O)N(C)C(C2)C(=O)NC(C)C(=O)NC(C)C(=O)N(C)C(Cc2ccc(OC)cc2)C(=O)NC(C)C(=O)N1C` (stereo not shown) [Ex. 30], in the data set with P-388 cells (setting [2]), the response vs control in vivo at 0.05 mg/kg amounted to 122%, the response vs control in vivo at 0.5 mg/kg stood at 146%, the response vs control in vivo at 2 mg/kg came out at 152% and the response vs control in vivo at 10 mg/kg turned out to be 151%. The “effective against B-16 melanoma” value in the data set with B-16 melanoma is given as “effective against B-16 melanoma”. Further, the “effective against MM2” value with MM2 is listed as “effective”.
Turning to `COc1ccc(CC2C(=O)NC(C)C(=O)N(C)C3Cc4ccc(cc4)Oc4cc(ccc4O)CC(C(=O)NC(C)C(=O)NC(C)C(=O)N2C)N(C)C3=O)cc1` (stereo not shown) [TPC-A], the response vs control in vivo at 10 mg/kg in the data set on P-388 cells (setting [3]) worked out at 187%. Moreover, the “antineoplastic effect / effective to P-388 cells” value in the data set with P-388 cells (in words) is listed as “has antineoplastic effect by itself”. Besides, the LD50 at 168 h in data set [1] (intravenous) is 34 mg/kg; in data set [1] (ip, intraperitoneal), 16 mg/kg. Further, in the data set with CD-1 (IRC) mice, the Pharmacological effect estimated result was “emetic action; also recorded: anorexigenic action; also recorded: psychotropic action; also recorded: papaverine action”.
